The assay concerns the target P2X7 (Homo sapiens (Human), UniProt Q99572). Put plainly: P2X7 antagonism in human peripheral blood mononuclear cells (PBMCs), IL-1β release. Particulars: P2X7; Table 3 (additional runs); 10 μM compound; read-out: PBMC 10 μM (% control). The class given is cell-based. The protocol: P2X7 Antagonism in Human Peripheral Blood Mononuclear Cells (PBMCs) and Human Whole Blood.
Human blood was collected using a blood donor program. PBMCs were isolated from blood using a Ficoll density gradient technique. Briefly, blood was laid on Ficoll solution and centrifuged at RT for 20 minutes at 2000 rpm. The buffy layer (between red blood cells and plasma) was carefully collected by aspiration, washed with PBS and centrifuged again at 1500 rpm for 15 minutes. The resulting cell pellet was washed and plated on 96 well-plates for experiments. For the Human Whole Blood experiments, 150 μl of human blood was platted on 96 well-plates. Lipopolysaccharide (LPS) (30 ng/ml) was added to each well and incubated for 1 hour. Test compounds were then added and incubated for 30 minutes. The P2X7 agonist, 2′(3′)-O-(4-benzoylbenzoyl) adenosine 5′-triphosphate (Bz-ATP) was then added at a final concentration of 0.5 mM (PBMC) or 1 mM (blood). Cells were incubated for an additional 1.5 hours. At that point, supernatant was collected and stored for IL-1β assay using manufacturer's protocol for enzyme-linked immunosorbent assay (ELISA). Data was expressed as percent control, where control is defined as the difference in IL-1β release in LPS+Bz-ATP samples and LPS only samples. Data was plotted as response (% control) versus concentration to generate IC50 values. […] Data are analyzed and graphed on Graphpad Prism 5. For analysis, each concentration point is averaged from triplicate values and the averaged values are plotted on Graphpad Prism.
P2X7, sequence (Q99572 whole entry): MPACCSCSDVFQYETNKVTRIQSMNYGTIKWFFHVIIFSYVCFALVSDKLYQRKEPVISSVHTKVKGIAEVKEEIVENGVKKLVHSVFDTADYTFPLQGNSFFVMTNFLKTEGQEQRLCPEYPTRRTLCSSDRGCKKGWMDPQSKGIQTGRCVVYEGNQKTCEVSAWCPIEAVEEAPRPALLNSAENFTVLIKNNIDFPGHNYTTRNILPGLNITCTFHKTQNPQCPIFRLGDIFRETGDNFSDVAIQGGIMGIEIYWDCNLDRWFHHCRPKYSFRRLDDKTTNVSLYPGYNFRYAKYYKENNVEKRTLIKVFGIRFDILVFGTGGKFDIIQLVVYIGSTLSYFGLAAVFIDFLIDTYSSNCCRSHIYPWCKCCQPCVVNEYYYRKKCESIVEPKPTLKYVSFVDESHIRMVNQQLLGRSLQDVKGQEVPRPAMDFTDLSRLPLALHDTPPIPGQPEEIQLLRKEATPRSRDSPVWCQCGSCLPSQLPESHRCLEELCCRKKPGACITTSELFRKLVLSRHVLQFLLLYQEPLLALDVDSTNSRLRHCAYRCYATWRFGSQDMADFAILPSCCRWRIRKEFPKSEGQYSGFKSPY
With `C[C@H]1Cn2c(nnc2-c2cncc(F)c2)C(=O)N1Cc1cccc(C(F)(F)F)c1Cl` [Example 45, (6S)-7-[2-Chloro-3-(trifluoromethyl)benzyl]-3-(5-fluoropyridin-3-yl)-6-methyl-6,7-dihydro[1,2,4]triazolo[4,3-a]pyrazin-8(5H)-one], the remaining activity at 10 µM worked out at 20.1%.

On to `Cc1cccc(-c2nnc3n2C[C@H](C)N(Cc2cccc(C(F)(F)F)c2Cl)C3=O)n1` [Example 46, (6S)-7-[2-Chloro-3-(trifluoromethyl)benzyl]-6-methyl-3-(6-methylpyridin-2-yl)-6,7-dihydro[1,2,4]triazolo[4,3-a]pyrazin-8(5H)-one], for which the remaining activity at 10 µM was determined as 2.7%.

Regarding `C[C@H]1Cn2c(nnc2-c2ccncc2)C(=O)N1Cc1cccc(C(F)(F)F)c1Cl` [Example 47, (6S)-7-[2-Chloro-3-(trifluoromethyl)benzyl]-6-methyl-3-pyridin-4-yl-6,7-dihydro[1,2,4]triazolo[4,3-a]pyrazin-8(5H)-one], the remaining activity at 10 µM was -1.3%.

In the case of `Cc1ncccc1-c1nnc2n1C[C@H](C)N(Cc1cccc(C(F)(F)F)c1Cl)C2=O` [Example 48, (6S)-7-[2-Chloro-3-(trifluoromethyl)benzyl]-6-methyl-3-(2-methylpyridin-3-yl)-6,7-dihydro[1,2,4]triazolo[4,3-a]pyrazin-8(5H)-one], the remaining activity at 10 µM was 0%.

Consider `C[C@H]1Cn2c(nnc2C2CCC2)C(=O)N1Cc1cccc(C(F)(F)F)c1Cl` [Example 49, (6S)-7-[2-Chloro-3-(trifluoromethyl)benzyl]-3-cyclobutyl-6-methyl-6,7-dihydro[1,2,4]triazolo[4,3-a]pyrazin-8(5H)-one], for which the remaining activity at 10 µM was -3.1%.

For `C[C@H]1Cn2c(nnc2C2CC2)C(=O)N1Cc1cccc(C(F)(F)F)c1Cl` [Example 50, (6S)-7-[2-Chloro-3-(trifluoromethyl)benzyl]-3-cyclopropyl-6-methyl-6,7-dihydro[1,2,4]triazolo[4,3-a]pyrazin-8(5H)-one], the remaining activity at 10 µM stood at 8.7%.

Take `C[C@H]1Cn2c(nnc2C2CCCCC2)C(=O)N1Cc1cccc(C(F)(F)F)c1Cl` [Example 51, (6S)-7-[2-Chloro-3-(trifluoromethyl)benzyl]-3-cyclohexyl-6-methyl-6,7-dihydro[1,2,4]triazolo[4,3-a]pyrazin-8(5H)-one]: the remaining activity at 10 µM stood at 22.4%.

As to `C[C@H]1Cn2c(nnc2-c2cncc(Cl)c2)C(=O)N1Cc1cccc(C(F)(F)F)c1Cl` [Example 52, (6S)-3-(5-Chloropyridin-3-yl)-7-[2-chloro-3-(trifluoromethyl)benzyl]-6-methyl-6,7-dihydro[1,2,4]triazolo[4,3-a]pyrazin-8(5H)-one], the remaining activity at 10 µM amounted to 13.8%.

In the case of `C[C@H]1Cn2c(nnc2C2CCOCC2)C(=O)N1Cc1cccc(C(F)(F)F)c1Cl` [Example 53, (6S)-7-[2-Chloro-3-(trifluoromethyl)benzyl]-6-methyl-3-(tetrahydro-2H-pyran-4-yl)-6,7-dihydro[1,2,4]triazolo[4,3-a]pyrazin-8(5H)-one], the remaining activity at 10 µM is 33.2%.

Turning to `C[C@H]1Cn2c(nnc2-c2nccc(C(F)(F)F)n2)C(=O)N1Cc1cccc(C(F)(F)F)c1Cl` [Example 54, (6S)-7-[2-chloro-3-(trifluoromethyl)benzyl]-6-methyl-3-[4-(trifluoromethyl)pyrimidin-2-yl]-6,7-dihydro[1,2,4]triazolo[4,3-a]pyrazin-8(5H)-one], the remaining activity at 10 µM turned out to be 4.2%.

As to `C[C@H]1Cn2c(nnc2-c2cccc(C(F)(F)F)n2)C(=O)N1Cc1cccc(C(F)(F)F)c1Cl` [Example 55, (6S)-7-[2-Chloro-3-(trifluoromethyl)benzyl]-6-methyl-3-[6-(trifluoromethyl)pyridin-2-yl]-6,7-dihydro[1,2,4]triazolo[4,3-a]pyrazin-8(5H)-one], the remaining activity at 10 µM is 8.5%.

(Values after patent US10053463B2 (Janssen Pharmaceutica NV, priority 2013, dated 2018).)
